We go through twelve compounds from US10526309B2, “Pan-TAM inhibitors and Mer/Axl dual inhibitors” (The University of North Carolina at Chapel Hill, priority 2015, dated 2020).

Where only a bound is given, the exact number is not on record here.

The IC50 is the concentration needed to halve the response being measured.

For one experiment, the target named is T1, Mer (Homo sapiens, UniProt Q12866).
T1 sequence (Q12866 21-999): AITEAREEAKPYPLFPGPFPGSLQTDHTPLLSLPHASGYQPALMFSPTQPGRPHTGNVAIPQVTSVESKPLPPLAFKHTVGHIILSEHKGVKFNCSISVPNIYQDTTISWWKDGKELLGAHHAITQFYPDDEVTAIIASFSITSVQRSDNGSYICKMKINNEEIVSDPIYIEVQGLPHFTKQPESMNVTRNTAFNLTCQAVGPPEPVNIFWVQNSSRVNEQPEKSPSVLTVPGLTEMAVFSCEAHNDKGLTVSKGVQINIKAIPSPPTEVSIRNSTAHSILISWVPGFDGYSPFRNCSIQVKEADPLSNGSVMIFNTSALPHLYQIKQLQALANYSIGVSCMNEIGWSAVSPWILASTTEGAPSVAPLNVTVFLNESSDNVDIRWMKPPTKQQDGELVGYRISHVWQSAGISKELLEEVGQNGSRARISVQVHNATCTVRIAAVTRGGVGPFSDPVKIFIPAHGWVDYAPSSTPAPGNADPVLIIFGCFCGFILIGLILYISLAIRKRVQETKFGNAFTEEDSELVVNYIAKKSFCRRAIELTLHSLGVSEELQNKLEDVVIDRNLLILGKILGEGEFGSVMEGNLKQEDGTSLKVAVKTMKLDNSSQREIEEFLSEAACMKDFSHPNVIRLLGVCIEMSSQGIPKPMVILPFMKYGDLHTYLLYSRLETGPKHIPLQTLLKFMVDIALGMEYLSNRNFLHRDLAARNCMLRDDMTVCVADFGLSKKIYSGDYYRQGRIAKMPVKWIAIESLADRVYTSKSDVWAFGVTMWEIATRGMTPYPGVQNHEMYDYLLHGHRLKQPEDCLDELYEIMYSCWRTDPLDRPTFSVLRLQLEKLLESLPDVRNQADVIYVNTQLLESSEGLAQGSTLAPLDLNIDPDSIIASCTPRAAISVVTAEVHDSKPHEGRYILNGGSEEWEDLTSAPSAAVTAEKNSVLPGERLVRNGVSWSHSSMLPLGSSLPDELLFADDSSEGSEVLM
The experiment can be described thus: Mer kinase inhibition IC50. The format is biochemical. The note with it: Table 3; read-out: Mer IC50.
Take `CN1CCN(Cc2ccc(-c3cnc(Nc4ccc(C#Cc5cc(NC(=O)C6CCCC6)ccn5)cc4)nc3N[C@H]3CC[C@H](O)CC3)cc2)CC1` [UNC3872A]: the half-inhibitory concentration (IC50) is less than 10 nM.

For `CN1CCN(Cc2ccc(-c3cnc(Nc4ccc(C#Cc5cc(NC(=O)C6CCCCC6)ccn5)cc4)nc3N[C@H]3CC[C@H](O)CC3)cc2)CC1` [UNC3873A], the concentration for half-maximal inhibition (IC50) is less than 10 nM.

As to `CC(=O)Nc1ccnc(C#Cc2ccc(Nc3ncc(-c4ccc(CN5CCN(C)CC5)cc4)c(N[C@H]4CC[C@H](O)CC4)n3)cc2)c1` [UNC3874A], the half-inhibitory concentration (IC50) lay in the range of 10 to 100 nM.

In the case of `CC(C)C(=O)Nc1ccnc(C#Cc2ccc(Nc3ncc(-c4ccc(CN5CCN(C)CC5)cc4)c(N[C@H]4CC[C@H](O)CC4)n3)c(F)c2)c1` [UNC4040A], the 50% inhibitory concentration (IC50) was less than 10 nM.

Consider `CC(C)C(=O)Nc1ccnc(C#Cc2ccc(Nc3ncc(-c4ccccc4)c(N[C@H]4CC[C@H](O)CC4)n3)cc2)c1` [UNC4041A], for which the IC50 fell in the range of 10 to 100 nM.

As to `CC(C)C(=O)Nc1ccnc(C#Cc2ccc(Nc3ncc(-c4ccccn4)c(N[C@H]4CC[C@H](O)CC4)n3)cc2)c1` [UNC4042A], the IC50 is less than 10 nM.

With `CC(C)C(=O)Nc1ccnc(C#Cc2ccc(Nc3ncc(-c4ccncc4)c(N[C@H]4CC[C@H](O)CC4)n3)cc2)c1` [UNC4043A], the 50% inhibitory concentration (IC50) is less than 10 nM.

`Cc1cc(Nc2ncc(-c3ccc(CN4CCN(C)CC4)cc3)c(N[C@H]3CC[C@H](O)CC3)n2)ccc1C#Cc1cc(NC(=O)C(C)C)ccn1` [UNC4044A]: the IC50 was less than 10 nM.

In the case of `CC(C)C(=O)Nc1ccnc(C#Cc2ccc(Nc3ncc(-c4ccc(CN5CCN(C)CC5)cc4)c(N[C@H]4CC[C@H](O)CC4)n3)cc2F)c1` [UNC4045A], the IC50 was less than 10 nM.

Take `CC(C)C(=O)Nc1ccnc(C#Cc2ccc(Nc3ncc(-c4ccc(CN5CCN(C)CC5)cc4)c(N[C@H]4CC[C@H](O)CC4)n3)c(Cl)c2)c1` [UNC4046A]: the 50% inhibitory concentration (IC50) was in the range of 10 to 100 nM.

Turning to `CC(C)C(=O)Nc1ccnc(C#Cc2ccc(Nc3ncc(-c4ccc(CN5CCN(C)CC5)cc4)c(N[C@H]4CC[C@H](O)CC4)n3)cc2Cl)c1` [UNC4047A], the 50% inhibitory concentration (IC50) is less than 10 nM.

The target in another experiment is T2, Axl (Homo sapiens, UniProt P30530).
T2 sequence (P30530 26-894): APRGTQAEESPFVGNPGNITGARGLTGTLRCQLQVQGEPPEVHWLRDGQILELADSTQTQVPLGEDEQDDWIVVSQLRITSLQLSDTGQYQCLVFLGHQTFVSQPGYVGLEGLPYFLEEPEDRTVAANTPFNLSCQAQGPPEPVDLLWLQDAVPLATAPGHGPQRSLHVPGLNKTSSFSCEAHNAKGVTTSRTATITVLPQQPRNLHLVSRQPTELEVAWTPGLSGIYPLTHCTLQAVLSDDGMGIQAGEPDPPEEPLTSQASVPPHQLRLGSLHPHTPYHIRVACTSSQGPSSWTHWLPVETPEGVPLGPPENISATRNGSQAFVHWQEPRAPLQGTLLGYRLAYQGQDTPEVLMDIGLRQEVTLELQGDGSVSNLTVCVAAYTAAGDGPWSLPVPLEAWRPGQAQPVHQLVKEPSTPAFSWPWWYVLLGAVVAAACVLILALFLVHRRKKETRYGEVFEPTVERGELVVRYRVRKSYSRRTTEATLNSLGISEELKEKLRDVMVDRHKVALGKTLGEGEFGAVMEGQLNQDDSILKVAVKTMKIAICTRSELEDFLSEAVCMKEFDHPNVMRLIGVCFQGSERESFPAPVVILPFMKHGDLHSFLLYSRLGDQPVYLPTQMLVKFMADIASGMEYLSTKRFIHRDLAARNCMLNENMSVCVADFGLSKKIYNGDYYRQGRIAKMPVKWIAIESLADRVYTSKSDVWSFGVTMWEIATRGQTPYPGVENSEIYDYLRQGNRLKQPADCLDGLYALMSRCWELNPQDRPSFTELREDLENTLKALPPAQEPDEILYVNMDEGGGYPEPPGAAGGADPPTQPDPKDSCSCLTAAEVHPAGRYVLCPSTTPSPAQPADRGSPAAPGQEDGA
Kind of experiment: Axl kinase inhibition IC50. The note with it: Table 1. The format is biochemical.
For `O[C@H]1CC[C@H](Nc2nc(Nc3ccccc3)ncc2-c2ccccn2)CC1` [UNC3029A], the IC50 is 100 to 1000 nM.

Staying with this experiment, now noted: Table 3.
For the compound `CN1CCN(Cc2ccc(-c3cnc(Nc4ccc(C#Cc5cc(NC(=O)C6CCCC6)ccn5)cc4)nc3N[C@H]3CC[C@H](O)CC3)cc2)CC1` [UNC3872A], the IC50 is less than 10 nM.

`CN1CCN(Cc2ccc(-c3cnc(Nc4ccc(C#Cc5cc(NC(=O)C6CCCCC6)ccn5)cc4)nc3N[C@H]3CC[C@H](O)CC3)cc2)CC1` [UNC3873A] had a 50% inhibitory concentration (IC50) of 10 to 100 nM.

`CC(=O)Nc1ccnc(C#Cc2ccc(Nc3ncc(-c4ccc(CN5CCN(C)CC5)cc4)c(N[C@H]4CC[C@H](O)CC4)n3)cc2)c1` [UNC3874A] had an IC50 of 100 to 1000 nM.

With `CC(C)C(=O)Nc1ccnc(C#Cc2ccc(Nc3ncc(-c4ccc(CN5CCN(C)CC5)cc4)c(N[C@H]4CC[C@H](O)CC4)n3)c(F)c2)c1` [UNC4040A], the concentration for half-maximal inhibition (IC50) is 100 to 1000 nM.

Turning to `CC(C)C(=O)Nc1ccnc(C#Cc2ccc(Nc3ncc(-c4ccccc4)c(N[C@H]4CC[C@H](O)CC4)n3)cc2)c1` [UNC4041A], the IC50 is 100 to 1000 nM.

`CC(C)C(=O)Nc1ccnc(C#Cc2ccc(Nc3ncc(-c4ccccn4)c(N[C@H]4CC[C@H](O)CC4)n3)cc2)c1` [UNC4042A] registered an IC50 of less than 10 nM.

As for `CC(C)C(=O)Nc1ccnc(C#Cc2ccc(Nc3ncc(-c4ccncc4)c(N[C@H]4CC[C@H](O)CC4)n3)cc2)c1` [UNC4043A], the IC50 lay in the range of 10 to 100 nM.

In the case of `Cc1cc(Nc2ncc(-c3ccc(CN4CCN(C)CC4)cc3)c(N[C@H]3CC[C@H](O)CC3)n2)ccc1C#Cc1cc(NC(=O)C(C)C)ccn1` [UNC4044A], the half-maximal inhibitory concentration (IC50) was less than 10 nM.

`CC(C)C(=O)Nc1ccnc(C#Cc2ccc(Nc3ncc(-c4ccc(CN5CCN(C)CC5)cc4)c(N[C@H]4CC[C@H](O)CC4)n3)cc2F)c1` [UNC4045A]: the half-maximal inhibitory concentration (IC50) was less than 10 nM.

Consider `CC(C)C(=O)Nc1ccnc(C#Cc2ccc(Nc3ncc(-c4ccc(CN5CCN(C)CC5)cc4)c(N[C@H]4CC[C@H](O)CC4)n3)c(Cl)c2)c1` [UNC4046A], for which the IC50 was less than 10 nM.

`CC(C)C(=O)Nc1ccnc(C#Cc2ccc(Nc3ncc(-c4ccc(CN5CCN(C)CC5)cc4)c(N[C@H]4CC[C@H](O)CC4)n3)cc2Cl)c1` [UNC4047A]: the IC50 is less than 10 nM.

The target in the next experiment is T3, Tyro3 (Homo sapiens, UniProt Q06418).
T3 sequence (Q06418 41-890): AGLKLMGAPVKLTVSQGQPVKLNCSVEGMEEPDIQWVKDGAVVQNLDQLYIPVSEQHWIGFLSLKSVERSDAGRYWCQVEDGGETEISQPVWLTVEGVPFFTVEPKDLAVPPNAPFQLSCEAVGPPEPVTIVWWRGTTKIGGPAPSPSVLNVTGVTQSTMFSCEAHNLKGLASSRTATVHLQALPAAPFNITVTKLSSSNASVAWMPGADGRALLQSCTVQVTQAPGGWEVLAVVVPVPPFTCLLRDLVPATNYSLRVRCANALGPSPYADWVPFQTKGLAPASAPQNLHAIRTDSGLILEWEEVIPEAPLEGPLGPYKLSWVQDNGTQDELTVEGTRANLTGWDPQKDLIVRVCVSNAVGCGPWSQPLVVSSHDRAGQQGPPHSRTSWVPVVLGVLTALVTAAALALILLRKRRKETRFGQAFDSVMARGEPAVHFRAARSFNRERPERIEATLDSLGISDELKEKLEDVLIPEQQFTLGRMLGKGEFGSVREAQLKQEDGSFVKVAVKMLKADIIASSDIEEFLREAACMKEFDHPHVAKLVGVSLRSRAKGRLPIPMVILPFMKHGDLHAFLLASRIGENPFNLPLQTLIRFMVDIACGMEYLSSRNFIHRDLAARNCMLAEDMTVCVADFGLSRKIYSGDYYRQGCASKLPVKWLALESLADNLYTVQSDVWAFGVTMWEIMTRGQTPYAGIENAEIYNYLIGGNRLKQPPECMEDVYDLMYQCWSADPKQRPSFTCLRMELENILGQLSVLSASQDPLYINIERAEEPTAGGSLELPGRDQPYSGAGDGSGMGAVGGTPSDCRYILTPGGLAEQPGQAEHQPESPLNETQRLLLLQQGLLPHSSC
The experiment can be described thus: Tyro3 kinase inhibition IC50. It counts as biochemical. The note with it: Table 1; read-out: Tyro3 IC50.
Regarding `O[C@H]1CC[C@H](Nc2nc(Nc3ccccc3)ncc2-c2ccccn2)CC1` [UNC3029A], the IC50 is less than 10 nM.

Still in this experiment, the particulars now being: Table 3; read-out: Tyro3 IC50.
As for `CN1CCN(Cc2ccc(-c3cnc(Nc4ccc(C#Cc5cc(NC(=O)C6CCCC6)ccn5)cc4)nc3N[C@H]3CC[C@H](O)CC3)cc2)CC1` [UNC3872A], the IC50 was less than 10 nM.

Take `CN1CCN(Cc2ccc(-c3cnc(Nc4ccc(C#Cc5cc(NC(=O)C6CCCCC6)ccn5)cc4)nc3N[C@H]3CC[C@H](O)CC3)cc2)CC1` [UNC3873A]: the IC50 lay within 10 to 100 nM.

`CC(=O)Nc1ccnc(C#Cc2ccc(Nc3ncc(-c4ccc(CN5CCN(C)CC5)cc4)c(N[C@H]4CC[C@H](O)CC4)n3)cc2)c1` [UNC3874A]: the IC50 is 10 to 100 nM.

Regarding `CC(C)C(=O)Nc1ccnc(C#Cc2ccc(Nc3ncc(-c4ccc(CN5CCN(C)CC5)cc4)c(N[C@H]4CC[C@H](O)CC4)n3)c(F)c2)c1` [UNC4040A], the half-inhibitory concentration (IC50) was less than 10 nM.

Regarding `CC(C)C(=O)Nc1ccnc(C#Cc2ccc(Nc3ncc(-c4ccccc4)c(N[C@H]4CC[C@H](O)CC4)n3)cc2)c1` [UNC4041A], the IC50 lay in the range of 10 to 100 nM.

As for `CC(C)C(=O)Nc1ccnc(C#Cc2ccc(Nc3ncc(-c4ccccn4)c(N[C@H]4CC[C@H](O)CC4)n3)cc2)c1` [UNC4042A], the IC50 is less than 10 nM.

Turning to `CC(C)C(=O)Nc1ccnc(C#Cc2ccc(Nc3ncc(-c4ccncc4)c(N[C@H]4CC[C@H](O)CC4)n3)cc2)c1` [UNC4043A], the concentration for half-maximal inhibition (IC50) was less than 10 nM.

For the compound `Cc1cc(Nc2ncc(-c3ccc(CN4CCN(C)CC4)cc3)c(N[C@H]3CC[C@H](O)CC3)n2)ccc1C#Cc1cc(NC(=O)C(C)C)ccn1` [UNC4044A], the 50% inhibitory concentration (IC50) was less than 10 nM.

As for `CC(C)C(=O)Nc1ccnc(C#Cc2ccc(Nc3ncc(-c4ccc(CN5CCN(C)CC5)cc4)c(N[C@H]4CC[C@H](O)CC4)n3)cc2F)c1` [UNC4045A], the IC50 was less than 10 nM.

For the compound `CC(C)C(=O)Nc1ccnc(C#Cc2ccc(Nc3ncc(-c4ccc(CN5CCN(C)CC5)cc4)c(N[C@H]4CC[C@H](O)CC4)n3)c(Cl)c2)c1` [UNC4046A], the IC50 is 10 to 100 nM.

Regarding `CC(C)C(=O)Nc1ccnc(C#Cc2ccc(Nc3ncc(-c4ccc(CN5CCN(C)CC5)cc4)c(N[C@H]4CC[C@H](O)CC4)n3)cc2Cl)c1` [UNC4047A], the IC50 was less than 10 nM.
